According to ChEMBL document CHEMBL5113402, “Inhibition of cytochrome P450 monooxygenase-catalyzed oxylipin formation by flavonoids: Evaluation of structure-activity relationship towards CYP4F2-selective inhibitors” (Eur J Med Chem, 2022):
≈ marks a conversion by molar mass, not a printed value.

Tests used:
[1] = target: CYP450 (20-HETE formation) (Homo sapiens, UniProt P04798+P05177+P05181+P08684+P10632+P10635+P11509+P11712+P13584+P20813+P20815+P20853+P24462+P24903+P33260+P33261+P51589+P78329+P98187+Q02928+Q08477+Q16678+Q16696+Q5TCH4+Q6VVX0+Q7Z449+Q8TAV3+Q96SQ9+Q9HB55); assay: Inhibition of CYP450 in human liver microsomes assessed as inhibition of 20-HETE formation at 10 uM in presence of arachidonic acid and NADPH by multi-enzyme assay based LC-MS/MS analysis relative to control; format: ADME, Microsome; conditions: probe arachidonic acid
[2] = target: CYP450 (EpETrE formation) (Homo sapiens, UniProt P04798+P05177+P05181+P08684+P10632+P10635+P11509+P11712+P13584+P20813+P20815+P20853+P24462+P24903+P33260+P33261+P51589+P78329+P98187+Q02928+Q08477+Q16678+Q16696+Q5TCH4+Q6VVX0+Q7Z449+Q8TAV3+Q96SQ9+Q9HB55); assay: Inhibition of CYP450 in human liver microsomes assessed as inhibition of EpETrE formation at 10 uM in presence of arachidonic acid and NADPH by multi-enzyme assay based LC-MS/MS analysis relative to control; format: ADME, Microsome; conditions: probe arachidonic acid
Homo sapiens = species on record: Homo sapiens; assay: Selectivity index, log ratio of Inhibition of CYP450 in human liver microsomes assessed as inhibition of EpETrE formation in presence of arachidonic acid to Inhibition of CYP450 in human liver microsomes assessed as inhibition of 20-HETE formation in presence of arachidonic acid
[3] = Solubility of the compound in phospahte-buffered saline buffer at pH 7.4 by shake flask method; format: physicochemical; conditions: phosphate-buffered saline
Cytochrome P450 4F2 = target: T1, Cytochrome P450 4F2 (Homo sapiens, UniProt P78329); assay: Inhibition of recombinant CYP4F2 (unknown origin) incubated for 5 to 15 mins in presence of NADPH by LC-MS/MS analysis; format: ADME
T1 sequence (P78329 whole entry): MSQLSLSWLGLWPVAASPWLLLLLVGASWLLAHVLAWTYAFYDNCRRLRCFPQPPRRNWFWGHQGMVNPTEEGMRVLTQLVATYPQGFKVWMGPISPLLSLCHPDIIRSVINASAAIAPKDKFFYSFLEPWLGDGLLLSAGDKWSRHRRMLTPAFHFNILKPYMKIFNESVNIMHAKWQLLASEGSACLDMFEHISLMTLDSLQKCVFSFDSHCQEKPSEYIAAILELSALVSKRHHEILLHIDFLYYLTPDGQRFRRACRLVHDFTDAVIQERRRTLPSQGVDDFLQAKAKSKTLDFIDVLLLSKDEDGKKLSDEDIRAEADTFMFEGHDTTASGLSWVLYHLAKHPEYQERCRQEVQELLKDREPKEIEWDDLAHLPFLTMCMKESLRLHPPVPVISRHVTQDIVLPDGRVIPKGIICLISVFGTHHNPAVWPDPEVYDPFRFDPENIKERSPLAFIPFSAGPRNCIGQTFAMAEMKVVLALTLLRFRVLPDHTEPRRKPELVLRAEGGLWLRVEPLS

SMILES | inhibition at 10 µM [1] [%] | inhibition at 10 µM [2] [%] | log(ratio) (Homo sapiens) | solubility thermodynamic [3] [µM] | IC50 (Cytochrome P450 4F2) [µM]
O=c1c(-c2ccc(O)cc2)coc2cc(O)cc(O)c12 [GENISTEIN] | 39 | < 15 | 0.49 | – | –
O=c1cc(-c2ccccc2)oc2cc(O)c(O)c(O)c12 [BAICALEIN] | < 15 | 32 | -0.36 | – | –
O=c1cc(-c2ccc(O)cc2)oc2ccccc12 | < 15 | < 15 | 0.05 | – | –
COc1ccc(-c2coc3cc(O)cc(O)c3c2=O)cc1 [BIOCHANIN] | 25 | < 15 | 0.25 | – | –
COc1ccccc1-c1cc(=O)c2ccccc2o1 | < 15 | 37 | -0.4 | – | –
O=c1cc(-c2ccccc2O)oc2ccccc12 | < 15 | 24 | -0.29 | – | –
O=c1cc(-c2ccc(Br)cc2)oc2ccc(O)cc12 | < 15 | < 15 | 0 | – | –
O=c1cc(-c2ccc(O)c(O)c2)oc2ccccc12 | 32 | 19 | 0.17 | – | –
O=c1cc(-c2ccc(Br)cc2)oc2ccccc12 | 35 | < 15 | 0.4 | – | –
Cc1ccc(-c2cc(=O)c3ccccc3o2)cc1 | 32 | 26 | 0.07 | – | –
O=c1cc(-c2ccccc2)oc2ccccc12 [FLAVONE] | < 15 | < 15 | 0 | – | –
CC(=O)OC[C@@]12CC[C@@]3(C)[C@H]4C(=CC[C@]3(C)[C@H]1[C@H](O)C[C@H]2C(C)C)[C@@]1(C)CCC(=O)C(C)(C)[C@@H]1C[C@@H]4O [RUBIARBONONE C] | – | – | – | – | 4.2
O=c1cc(-c2ccccc2)oc2cc(O)ccc12 [7-HYDROXYFLAVONE] | < 15 | 35 | – | – | –
COc1ccc(-c2coc3ccccc3c2=O)cc1 | < 15 | < 15 | 0.18 | – | –
O=c1cc(-c2ccccc2)oc2ccc(O)cc12 [6-HYDROXYFLAVONE] | < 15 | 15 | -0.01 | – | –
COc1cccc(-c2coc3ccccc3c2=O)c1 | < 15 | < 15 | 0 | – | –
O=c1cc(-c2ccc(O)c(O)c2)oc2ccc(O)cc12 | 26 | < 15 | 0.29 | – | –
O=c1c(-c2ccccc2)coc2ccccc12 [ISOFLAVONE] | < 15 | < 15 | 0.19 | – | –
COc1ccccc1-c1coc2ccccc2c1=O | < 15 | < 15 | -0.15 | – | –

Continued, in another order:

inhibition at 10 µM [1] [%] | inhibition at 10 µM [2] [%] | log(ratio) (Homo sapiens) | solubility thermodynamic [3] [µM] | SMILES | IC50 (Cytochrome P450 4F2) [µM]
55 | < 15 | 0.59 | 1 (≈ 0.32 µg/mL) | COc1ccc2oc(-c3ccc(C(F)(F)F)cc3)cc(=O)c2c1 | –
< 15 | < 15 | -0.09 | – | COc1cccc(-c2cc(=O)c3cc(OC)ccc3o2)c1 [6,3'-DIMETHOXYFLAVONE] | –
< 15 | < 15 | -0.09 | – | COc1cc2oc(-c3ccccc3)cc(=O)c2c(OC)c1OC [BAICALEIN TRIMETHYL ETHER] | –
< 15 | < 15 | 0.07 | – | COc1ccc2oc(-c3ccc(OC)c(OC)c3)cc(=O)c2c1 | –
27 | 20 | 0.13 | – | COc1ccc(-c2cc(=O)c3ccccc3o2)cc1 [4'-METHOXYFLAVONE] | –
17 | < 15 | 0.16 | – | COc1ccc2oc(-c3ccc(Br)cc3)cc(=O)c2c1 | –
< 15 | 16 | -0.05 | – | COc1ccc2oc(-c3ccccc3)cc(=O)c2c1 [6-METHOXYFLAVONE] | –
< 15 | < 15 | 0 | – | COc1ccc(-c2cc(=O)c3cc(OC)ccc3o2)cc1 [6,4'-DIMETHOXYFLAVONE] | –
18 | < 15 | 0.08 | – | COc1ccc(-c2cc(=O)c3ccccc3o2)cc1OC [3',4'-DIMETHOXYFLAVONE] | –
27 | < 15 | 0.22 | – | COc1ccc(-c2coc3ccccc3c2=O)cc1OC | –
< 15 | 50 | – | – | COc1ccc2c(=O)cc(-c3ccccc3)oc2c1 [7-METHOXYFLAVONE] | –
